Experimental data from patent US12410166B2, “Sulfonylamidine substituted compounds and their use as beta-lactamase inhibitors” (NINGXIA ACADEMY OF AGRICULTURE AND FORESTRY SCIENCES, priority 2021, dated 2025).
Where a name gives a salt, the structure may show the parent alone.

Key:
Test in all cases: MIC by broth microdilution (antibacterial and synergistic activity)
Type in all cases: cell-based
[1] = test system: K. pneumoniae 700603 (strain 4, KPC-3, TEM-1); details: strain 4 (KPC-3, TEM-1); for MIC: Klebsiella pneumoniae, read-out: Antibacterial activity, MIC, inhibitor Alone
Method: (§1) Compounds of the present invention alone, avibactam (AVI) alone, relebactam (REL) alone, meropenem (MER) alone, imipenem (IMI) alone, and as a combination of compounds of the present invention, or avibactam or relebactam with test antibiotic (meropenem or imipenem) was tested for antimicrobial activity by determining minimum inhibitory concentration (MIC, mg/L) using the broth microdilution method according to the guidelines of the Clinical Laboratories and Standards Institute (“Methods for Dilution Antimicrobial Susceptibility Tests for Bacterial that Grow Aerobically”, Approved standard, 7th ed., Clinical and Laboratories Standards Institute (CLSI) Document M7-A8, Wayne, Pa., USA, 2009). Meropenem or imipenem as a test antibiotic compound was dissolved in DMSO, and then diluted in microbial growth medium (Mueller-Hinton Broth II, cation adjusted) resulting in a final concentration range of 0.031-64 mg/L in serial two-fold dilution. In all cases the final DMSO concentration was less than 0.5%. Bacteria were added to 96-well microtitre plates containing the serial two-fold dilutions of the compounds; the final cell density was approximately 5×10^5 colony forming units/mL (CFU/mL). Plates were incubated at 37° C. for 18-24 hours and read visually. The MIC, i.e. the lowest concentration of the test compound that inhibited visible growth of the bacteria, was recorded. The same assay conditions were used when the compounds of present invention alone, avibactam or relebactam alone (as a control), and as a combination of the present invention each compound, or avibactam or relebactam with test meropenem or imipenem antibiotic compound was tested for minimum inhibitory concentration (MIC, mg/L). While test meropenem or imipenem was serially diluted as described above, a constant concentration of avibactam, or relebactam or the present invention each compound of 4 mg/L was used.
(§2) Bacterial strains that were used to evaluate the antimicrobial activity using the MIC determination included but were not limited to E. coli clinical isolate (strain 1, TEM-1), E. coli 8739 (strain 2, CTX-M15), K. pneumoniae clinical isolate (strain 3, SHV-1), K. pneumoniae 700603 (strain 4, KPC-3, TEM-1), E. cloacae clinical isolate (strain 5, P99), E. cloacae 700323 (strain 6, AmpC), A. baumannii clinical isolate (strain 7, OXA-23, OXA-40), A. baumannii 19606 (strain 8, OXA-24), P. aeruginosa clinical isolate (strain 9, KPC-2), P. aeruginosa 9027 (strain 10, AmpC).

[2] = test system: P. aeruginosa clinical isolate (strain 9, KPC-2); details: strain 9 (KPC-2); for MIC: Pseudomonas aeruginosa, read-out: Antibacterial activity, MIC, inhibitor Alone
Method: as §1, §2

[3] = test system: P. aeruginosa 9027 (strain 10, AmpC); details: strain 10 (AmpC); for MIC: Pseudomonas aeruginosa, read-out: Antibacterial activity, MIC, inhibitor Alone
Method: as §1, §2

[4] = test system: A. baumannii clinical isolate (strain 7, OXA-23, OXA-40); details: strain 7 (OXA-23/40); for MIC: Acinetobacter baumannii, read-out: Antibacterial activity, MIC, inhibitor Alone
Method: as §1, §2

[5] = test system: E. coli 8739 (strain 2, CTX-M15); details: for MIC: Escherichia coli, read-out: Antibacterial activity, MIC, inhibitor Alone
Method: as §1, §2

[6] = test system: A. baumannii 19606 (strain 8, OXA-24); details: for MIC: Acinetobacter baumannii, read-out: Antibacterial activity, MIC, inhibitor Alone
Method: as §1, §2

[7] = test system: E. coli clinical isolate (strain 1, TEM-1); details: strain 1 (TEM-1); for MIC: Escherichia coli, read-out: Antibacterial activity, MIC, inhibitor Alone
Method: as §1, §2

[8] = test system: E. cloacae 700323 (strain 6, AmpC); details: strain 6 (AmpC); for MIC: Enterobacter cloacae, read-out: Antibacterial activity, MIC, inhibitor Alone
Method: as §1, §2

[9] = test system: E. cloacae clinical isolate (strain 5, P99); details: strain 5 (P99); for MIC: Enterobacter cloacae, read-out: Antibacterial activity, MIC, inhibitor Alone
Method: as §1, §2

[10] = test system: K. pneumoniae clinical isolate (strain 3, SHV-1); details: strain 3 (SHV-1); for MIC: Klebsiella pneumoniae, read-out: Antibacterial activity, MIC, inhibitor Alone
Method: as §1, §2

[11] = strain 8 (OXA-24), inhibitor at constant 4 mg/L

N=C(NS(=O)(=O)CC(F)(F)F)[C@@H]1CC[C@@H]2CN1C(=O)N2OS(=O)(=O)[O-].[Na+] [Ex. 1, Sodium (2S,5R)-7-oxo-2-(N-((2,2,2-trifluoroethyl)sulfonyl)caramimidoyl)-1,6-diazabicyclo[3.2.1]octan-6-yl sulfate]
Antibacterial activity, MIC, inhibitor Alone ([1]; compound alone, no antibiotic): >64 µg/mL
MIC of imipenem in combination with the inhibitor (IMI + inhibitor) ([1]; inhibitor at constant 4 mg/L): 0.25 µg/mL
MIC of meropenem in combination with the inhibitor (MER + inhibitor) ([1]; inhibitor at constant 4 mg/L): <0.125 µg/mL
Antibacterial activity, MIC, inhibitor Alone ([2]; compound alone, no antibiotic): >64 µg/mL
MIC of imipenem in combination with the inhibitor (IMI + inhibitor) ([2]; inhibitor at constant 4 mg/L): 0.25 µg/mL
MIC of meropenem in combination with the inhibitor (MER + inhibitor) ([2]; inhibitor at constant 4 mg/L): 0.125 µg/mL
Antibacterial activity, MIC, inhibitor Alone ([3]; compound alone, no antibiotic): >64 µg/mL
MIC of imipenem in combination with the inhibitor (IMI + inhibitor) ([3]; inhibitor at constant 4 mg/L): 0.5 µg/mL
MIC of meropenem in combination with the inhibitor (MER + inhibitor) ([3]; inhibitor at constant 4 mg/L): 0.125 µg/mL
Antibacterial activity, MIC, inhibitor Alone ([4]; compound alone, no antibiotic): >64 µg/mL
MIC of imipenem in combination with the inhibitor (IMI + inhibitor) ([4]; inhibitor at constant 4 mg/L): 0.0625 µg/mL
MIC of meropenem in combination with the inhibitor (MER + inhibitor) ([4]; inhibitor at constant 4 mg/L): <0.125 µg/mL
Antibacterial activity, MIC, inhibitor Alone ([5]; strain 2 (CTX-M15), compound alone, no antibiotic): >64 µg/mL
Antibacterial activity, MIC, inhibitor Alone ([6]; strain 8 (OXA-24), compound alone, no antibiotic): >64 µg/mL
MIC of imipenem in combination with the inhibitor (IMI + inhibitor) [6, 11]: 0.062 µg/mL
MIC of meropenem in combination with the inhibitor (MER + inhibitor) [6, 11]: 0.5 µg/mL
Antibacterial activity, MIC, inhibitor Alone ([7]; compound alone, no antibiotic): >64 µg/mL
MIC of imipenem in combination with the inhibitor (IMI + inhibitor) ([7]; inhibitor at constant 4 mg/L): 0.125 µg/mL
MIC of meropenem in combination with the inhibitor (MER + inhibitor) ([7]; inhibitor at constant 4 mg/L): <0.125 µg/mL
Antibacterial activity, MIC, inhibitor Alone ([8]; compound alone, no antibiotic): >64 µg/mL
MIC of imipenem in combination with the inhibitor (IMI + inhibitor) ([8]; inhibitor at constant 4 mg/L): 0.0625 µg/mL
MIC of meropenem in combination with the inhibitor (MER + inhibitor) ([8]; inhibitor at constant 4 mg/L): <0.125 µg/mL
Antibacterial activity, MIC, inhibitor Alone ([9]; compound alone, no antibiotic): >64 µg/mL
MIC of imipenem in combination with the inhibitor (IMI + inhibitor) ([9]; inhibitor at constant 4 mg/L): 1 µg/mL
MIC of meropenem in combination with the inhibitor (MER + inhibitor) ([9]; inhibitor at constant 4 mg/L): <0.125 µg/mL
Antibacterial activity, MIC, inhibitor Alone ([10]; compound alone, no antibiotic): >64 µg/mL
MIC of imipenem in combination with the inhibitor (IMI + inhibitor) ([10]; inhibitor at constant 4 mg/L): 0.25 µg/mL
MIC of meropenem in combination with the inhibitor (MER + inhibitor) ([10]; inhibitor at constant 4 mg/L): 0.125 µg/mL

CCS(=O)(=O)NC(=N)[C@@H]1CC[C@@H]2CN1C(=O)N2OS(=O)(=O)[O-].[Na+] [Ex. 8, Sodium (2S,5R)-2-(N-(ethylsulfonyl)carbamimidoyl)-7-oxo-1,6-diazabicyclo[3.2.1]octan-6-yl sulfate]
MIC ([1]; compound alone, no antibiotic): > 64 µg/mL
MIC ([2]; compound alone, no antibiotic): > 64 µg/mL
MIC ([3]; compound alone, no antibiotic): > 64 µg/mL
MIC ([4]; compound alone, no antibiotic): > 64 µg/mL
MIC [5]: > 64 µg/mL
MIC [6]: > 64 µg/mL
MIC ([7]; compound alone, no antibiotic): > 64 µg/mL
MIC ([8]; compound alone, no antibiotic): > 64 µg/mL
MIC ([9]; compound alone, no antibiotic): > 64 µg/mL
MIC ([10]; compound alone, no antibiotic): > 64 µg/mL

COCCS(=O)(=O)NC(=N)[C@@H]1CC[C@@H]2CN1C(=O)N2OS(=O)(=O)[O-].[Na+] [Ex. 3, Sodium (2S,5R)-2-(N-((2-methoxyethyl)sulfonyl)carbamimidoyl)-7-oxo-1,6-diazabicyclo[3.2.1]octan-6-yl sulfate]
MIC ([1]; compound alone, no antibiotic): > 64 µg/mL
MIC ([2]; compound alone, no antibiotic): > 64 µg/mL
MIC ([3]; compound alone, no antibiotic): > 64 µg/mL
MIC ([4]; compound alone, no antibiotic): > 64 µg/mL
MIC [5]: > 64 µg/mL
MIC [6]: > 64 µg/mL
MIC ([7]; compound alone, no antibiotic): > 64 µg/mL
MIC ([8]; compound alone, no antibiotic): > 64 µg/mL
MIC ([9]; compound alone, no antibiotic): > 64 µg/mL
MIC ([10]; compound alone, no antibiotic): > 64 µg/mL

CCNS(=O)(=O)NC(=N)[C@@H]1CC[C@@H]2CN1C(=O)N2OS(=O)(=O)O [Ex. 18, (2S,5R)-2-(N—(N-Ethylsulfamoyl)carbamimidoyl)-7-oxo-1,6-diazabicyclo[3.2.1]octan-6-yl hydrogen sulfate]
MIC ([1]; compound alone, no antibiotic): > 64 µg/mL
MIC ([2]; compound alone, no antibiotic): > 64 µg/mL
MIC ([3]; compound alone, no antibiotic): > 64 µg/mL
MIC ([4]; compound alone, no antibiotic): > 64 µg/mL
MIC [5]: > 64 µg/mL
MIC [6]: > 64 µg/mL
MIC ([7]; compound alone, no antibiotic): > 64 µg/mL
MIC ([8]; compound alone, no antibiotic): > 64 µg/mL
MIC ([9]; compound alone, no antibiotic): > 64 µg/mL
MIC ([10]; compound alone, no antibiotic): > 64 µg/mL

N=C(NS(N)(=O)=O)[C@@H]1CC[C@@H]2CN1C(=O)N2OS(=O)(=O)O [Ex. 16, (2S,5R)-7-oxo-2-(N-Sulfamoylcarbamimidoyl)-1,6-diazabicyclo[3.2.1]octan-6-yl hydrogen sulfate]
MIC ([1]; compound alone, no antibiotic): > 64 µg/mL
MIC ([2]; compound alone, no antibiotic): > 64 µg/mL
MIC ([3]; compound alone, no antibiotic): > 64 µg/mL
MIC ([4]; compound alone, no antibiotic): > 64 µg/mL
MIC [5]: > 64 µg/mL
MIC [6]: > 64 µg/mL
MIC ([7]; compound alone, no antibiotic): > 64 µg/mL
MIC ([8]; compound alone, no antibiotic): > 64 µg/mL
MIC ([9]; compound alone, no antibiotic): > 64 µg/mL
MIC ([10]; compound alone, no antibiotic): > 64 µg/mL
